Results taken from US20180071317A1, “USE OF AGENTS THAT ALTER THE PERITUMORAL ENVIRONMENT FOR THE TREATMENT OF CANCER” (SERVICIO ANDALUZ DE SALUD, priority 2011, published 2018).

Key:
[1] = test system: fibroblasts (PHF) co-cultured with tumor cells of human gastric adenocarcinoma (23132/87); assay: Marker expression (IHC) in PHF co-cultured with 23132/87 tumor cells; type: cell-based; settings: co-culture with 23132/87; SP 1 μM + antagonist 1 μM; 48 h;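 also: cultures grown in fresh plasma from a healthy human donor, values give the percentage of PHF fibroblasts positive for the marker, each experiment run in six replicates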
Procedure: All cultures were maintained 48 hours, following which the same cells were included in paraffin blocks for subsequent analysis of the expression of different markers by immunohistochemistry (see Example 1). The primary antibodies used to perform immunohistochemical assays and their concentration are detailed in Example 2. All experiments were carried out sixfold. Analyzed markers in fibroblast cells (stromal cells) were: TGF-α, TGF-β1, TGF-β2, TGF-β3, SPARC, MMP-3, MMP-7, MMP-9, MMP-11, MMP-13 and MMP-14.

[2] = test system: tumors from the tumor cell lines of Table 9; assay: Mean tumor volume in nude mice injected subcutaneously with human tumor cells; settings: 30 mg/kg/day oral, 7 days
[3] = test system: macrophages in co-culture with cells isolated from primary human tumors; assay: Marker expression (IHC) in macrophages co-cultured with primary human tumor cells (colon, breast, ovarian, lung carcinoma, melanoma); type: cell-based; settings: SP 1 μM + antagonist 1 μM;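 also: macrophages came from pleural or peritoneal washings of the patient who also supplied the tumor cells, and both were co-cultured on fresh blood plasma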
[4] = test system: fibroblasts of tumors produced by lung carcinoma non small cell human (HCC-44) cells; assay: Marker expression (IHC) in fibroblasts of tumor or peritumoral area, mouse model, HCC-44; type: in vivo; settings: HCC-44 tumors in mice, 30 mg/kg/day oral, 7 days
Procedure: The expression on fibroblast cells obtained in the animal model was analyzed by immunohistochemistry, of the above markers: TGF-α, TGF-β1, TGF-β2, TGF-β3, MMP-7, MMP-1 1, MMP-14MP-14. […] This process was realized in mice treated with non-peptide antagonists of NK1 receptor and in untreated animals (control).

[5] = test system: fibroblasts (PHF) co-cultured with tumor cells of human colon adenocarcinoma (SW-403); assay: Marker expression (IHC) in PHF co-cultured with SW-403 tumor cells; type: cell-based; settings: co-culture with SW-403; SP 1 μM + antagonist 1 μM; 48 h
[6] = test system: fibroblasts of tumors produced by human glioma tumor line (GAMG); assay: Marker expression (IHC) in fibroblasts of tumor or peritumoral area, mouse model, GAMG; type: in vivo; settings: GAMG tumors in mice, 30 mg/kg/day oral, 7 days
Procedure: In vitro tests conducted in Example 5 are now carried out in an experimental model in mice in vivo. […] Subsequently, the expression in fibroblasts tumoral and peritumoral area of molecular markers associated with progression and maintenance of tumors: TGF-α, TGF-β1, TGF-β2, TGF-β3, MMP-7, MMP-11, MMP-14 were analyzed by immunohistochemistry.
Were injected with 2×10^7 cells tumors (corresponding, in each case to each of the tumor types as specified in Table 9) in 200 of PBS subcutaneously μl. […] Mice were randomized into two groups when the tumors reached a volume of 75 mm^3 One group was treated with non-peptide receptor antagonists NK1 and the other with placebo 200μ1. […] Tumors and samples of non-neoplastic stromal areas remote from the tumor were halved, formalin fixed (4%) and then were included in paraffin blocks for analysis by immunohistochemistry.
The expression on fibroblast cells obtained in the animal model was analyzed by immunohistochemistry, of the above markers: TGF-α, TGF-β1, TGF-β2, TGF-β3, MMP-7, MMP-1 1, MMP-14MP-14. Tables 32 to 35 depict the type of label used and the average percentage of fibroblasts present in non-tumor areas, tumor and peritumoral (±SD) which were expressing the marker shown in each of the tumor types developed from of the different cell lines used. This process was realized in mice treated with non-peptide antagonists of NK1 receptor and in untreated animals (control).

[7] = co-culture with cells isolated from breast carcinoma
[8] = co-culture with cells isolated from colon carcinoma
[9] = co-culture with cells isolated from lung carcinoma
[10] = co-culture with cells isolated from melanoma
[11] = co-culture with cells isolated from ovarian carcinoma

C[C@@H](O[C@H]1OCCN(Cc2n[nH]c(=O)[nH]2)[C@H]1c1ccc(F)cc1)c1cc(C(F)(F)F)cc(C(F)(F)F)c1 [Aprepitant]
PHF cells expressing MMP-3 [1]: 0% | PHF cells expressing MMP-7 [1]: 0% | PHF cells expressing MMP-9 [1]: 0% | PHF cells expressing MMP-11 [1]: 0% | PHF cells expressing MMP-13 [1]: 0% | PHF cells expressing MMP-14 [1]: 0% | PHF cells expressing SPARC [1]: 0% | PHF cells expressing TGF-α [1]: 0% | PHF cells expressing TGF-β1 [1]: 0% | PHF cells expressing TGF-β2 [1]: 0% | PHF cells expressing TGF-β3 [1]: 0% | Mean tumor volume ([2]; B lymphoblastic leukemia (peripheral human B lymphoblastoid cells) SD1): 103 ± 8 | Mean tumor volume ([2]; Carcinoma of human non-small cell lung COR-L23): 102 ± 5 | Mean tumor volume ([2]; Carcinoma of human non-small cell lung H-1963): 98 ± 5 | Mean tumor volume ([2]; Carcinoma of human non-small cell lung HCC-44): 105 ± 7 | Mean tumor volume ([2]; Carcinoma of human small cell lung H-209): 104 ± 6 | Mean tumor volume ([2]; Carcinoma of human urinary bladder 5637): 102 ± 4 | Mean tumor volume ([2]; Human B lymphoma BC-1): 108 ± 5 | Mean tumor volume ([2]; Human Burkitt lymphoma CA-46): 109 ± 7 | Mean tumor volume ([2]; Human Fibrosarcoma HT-1080): 100 ± 4 | Mean tumor volume ([2]; Human Hodgkin lymphoma KM-H2): 101 ± 5 | Mean tumor volume ([2]; Human Rhabdomyosarcoma A-204): 102 ± 8 | Mean tumor volume ([2]; Human T-cell leukemia/NK YT): 106 ± 6 | Mean tumor volume ([2]; Human T-lymphoma DERL human Hodgkin 7Linfoma KM-H2): 105 ± 6 | Mean tumor volume ([2]; Human breast adenocarcinoma humano MCF-7): 95 ± 6 | Mean tumor volume ([2]; Human breast carcinoma MDA-MB-468): 99 ± 7 | Mean tumor volume ([2]; Human breast carcinoma MT-3): 109 ± 2 | Mean tumor volume ([2]; Human choriocarcinoma AC-1M32): 112 ± 4 | Mean tumor volume ([2]; Human colon carcinoma SW-403): 79 ± 4 | Mean tumor volume ([2]; Human endometrial carcinoma AN3-CA): 90 ± 4 | Mean tumor volume ([2]; Human endometrial stromal sarcoma ESS-1): 107 ± 4 | Mean tumor volume ([2]; Human folicular thyroid carcinoma TT2609-C02): 105 ± 7 | Mean tumor volume ([2]; Human gastric adenocarcinoma 23132/87): 77 ± 6 | Mean tumor volume ([2]; Human glioma GAMG): 108 ± 8 | Mean tumor volume ([2]; Human lung carcinoma A-427): 104 ± 4 | Mean tumor volume ([2]; Human lung carcinoma DV-90): 97 ± 3 | Mean tumor volume ([2]; Human lymphoblastic leukemia T BE-13): 102 ± 6 | Mean tumor volume ([2]; Human malignant fibrous histiocytoma U-2197): 102 ± 6 | Mean tumor volume ([2]; Human melanoma MEL HO): 104 ± 5 | Mean tumor volume ([2]; Human multiple myeloma COLO-677): 102 ± 6 | Mean tumor volume ([2]; Human neuroblastoma KELLY): 105 ± 6 | Mean tumor volume ([2]; Human neuroblastoma bone marrow SKN-BE 2): 97 ± 9 | Mean tumor volume ([2]; Human osteosarcoma CAL-72): 112 ± 4 | Mean tumor volume ([2]; Human ovarian adenocarcinoma EFO-27): 98 ± 7 | Mean tumor volume ([2]; Human ovarian carcinoma COLO-704): 101 ± 7 | Mean tumor volume ([2]; Human pancretic adenocarcinoma CAPAN-1): 86 ± 8 | Mean tumor volume ([2]; Human pancretic adenocarcinoma PA-TU 8902): 102 ± 7 | Mean tumor volume ([2]; Human papillary thyroid carcinoma metastasizing B-CPAP): 102 ± 4 | Mean tumor volume ([2]; Human prostate carcinoma 22RV1): 103 ± 5 | Mean tumor volume ([2]; Human retinoblastoma WERI-Rb-1): 99 ± 4 | Mean tumor volume ([2]; Human thyroid carcinoma 8505C): 105 ± 3 | Mean tumor volume ([2]; Human uterine cervix carcinoma KB): 103 ± 9 | Mean tumor volume ([2]; Melanoma humano, metástasis en ganglio linfático COLO 858): 109 ± 4 | Mean tumor volume ([2]; Sarcoma human Edwing MHH-ES-1): 103 ± 5 | Mean tumor volume ([2]; Transitional Carcinoma of human urinary bladder RT-4): 102 ± 6 | Percentage of macrophages which expressed EGF [3, 7]: 0% | Percentage of macrophages which expressed MMP-9 [3, 7]: 0% | Percentage of macrophages which expressed VEGF [3, 7]: 0% | Percentage of macrophages which expressed EGF [3, 8]: 0% | Percentage of macrophages which expressed MMP-9 [3, 8]: 0% | Percentage of macrophages which expressed VEGF [3, 8]: 0% | Percentage of macrophages which expressed EGF [3, 9]: 0% | Percentage of macrophages which expressed MMP-9 [3, 9]: 0% | Percentage of macrophages which expressed VEGF [3, 9]: 0% | Percentage of macrophages which expressed EGF [3, 10]: 0% | Percentage of macrophages which expressed MMP-9 [3, 10]: 0% | Percentage of macrophages which expressed VEGF [3, 10]: 0% | Percentage of macrophages which expressed EGF [3, 11]: 0% | Percentage of macrophages which expressed MMP-9 [3, 11]: 0% | Percentage of macrophages which expressed VEGF [3, 11]: 0% | fibroblasts expressing MMP-7 [4]: 0% | fibroblasts expressing MMP-11 [4]: 0% | fibroblasts expressing MMP-14 [4]: 0% | fibroblasts expressing TGF-α [4]: 0% | fibroblasts expressing TGF-β 1 [4]: 0% | fibroblasts expressing TGF-β 2 [4]: 0% | fibroblasts expressing TGF-β 3 [4]: 0% | PHF cells expressing MMP-3 [5]: 0% | PHF cells expressing MMP-7 [5]: 0% | PHF cells expressing MMP-9 [5]: 0% | PHF cells expressing MMP-11 [5]: 0% | PHF cells expressing MMP-13 [5]: 0% | PHF cells expressing MMP-14 [5]: 0% | PHF cells expressing SPARC [5]: 0% | PHF cells expressing TGF-α [5]: 0% | PHF cells expressing TGF-β1 [5]: 0% | PHF cells expressing TGF-β2 [5]: 0% | PHF cells expressing TGF-β3 [5]: 0% | fibroblasts expressing MMP-7 [6]: 0% | fibroblasts expressing MMP-11 [6]: 0% | fibroblasts expressing MMP-14 [6]: 0% | fibroblasts expressing TGF-α [6]: 0% | fibroblasts expressing TGF-β 1 [6]: 0% | fibroblasts expressing TGF-β 2 [6]: 0% | fibroblasts expressing TGF-β 3 [6]: 0%
